Article PMC11468294, “Peptide Amphiphiles as Biodegradable Adjuvants for Efficient Retroviral Gene Delivery” (Advanced Healthcare Materials, 2023)
“Also recorded” adds a separate entry of the source. Where a SMILES comes first, the peptide text is derived from it. The star is where a group is joined. Palmitoyl = CCCCCCCCCCCCCCCC(=O)*

Tests used:
HeLa cells = experiment: Cell-PA interaction by confocal laser scanning microscopy; assay type: cell-based; settings: peptide 20 µg mL-1 added for 30 min, washed, Proteostat stain
Protocol: Confocal laser scanning microscopy and degradation study with PA1‐3 and HeLa cells: HeLa cells were seeded one day prior to conducting the assay (40000/well) in an 8‐well IBIDI slide. 4 µL of the preformed peptide fibrils (1 mg mL^−1) were diluted with 4 µL Proteostat (Enzo Life Science, 1 µL stock in 999 µL PBS) and incubated for 10 min and further diluted with medium to receive a final peptide concentration of 20 µg mL^−1. The nucleus of the HeLa cells was stained with Hoechst 33 342 (NucBlue, Thermo Fisher Scientific). The peptide solution was transferred to the HeLa cells and incubated for 30 min at 37°C before washing three times with PBS. The interaction of fibril clusters with cells was monitored after 30 min incubation time on a Stellaris 8 confocal laser scanning microscope (Leica) equipped with a 20x air objective and laser excitation wavelengths of 405 nm (Hoechst) and 561 nm (Proteostat). For the evaluation of aggregate degradation, the samples were further incubated at 37°C for 3 d and analyzed without any additional washing step. The evaluation of aggregate size and number was conducted by analyzing Proteostat stained aggregates via the 3D objects counter function of ImageJ 1.53f51 for 3 individual measurements (area 581.25 µm × 581.25 µm). […] The number of aggregates larger than 10 µm^2 were counted via the 3D objects counter function of ImageJ 1.53f51. The mean number and standard deviations were determined by averaging at least three technical triplicates.
Figure S6 Laser scanning microscopy micrographs of A cells only (control), and Proteostat-stained (red) peptides B EF-
C ([…]), C PA1, D PA2, E PA3, F P1, G P2, H P3 added to HeLa cells (nucleus in blue). The peptides (20 µg mL-
1) were added to cells for 30 min, washed and analyzed. […]

[1] = tested on: HIV-1 infection of TZM-bl cells; experiment: HIV-1 infection assay (β-galactosidase luminescence reporter); assay type: cell-based; settings: infectivity enhancing if n-fold at 1.3 µM larger than 2
Protocol: HIV‐1 Infection Assay: The effect of peptide fibrils on HIV‐1 infection was studied via a luminescence assay for β‐galactosidase, which was reported by TZM‐bl cells upon infection. 10000 TZM‐bl cells were seeded in 180 µl supplemented DMEM one day prior infection. The cells were inoculated with 20 µl PNF solution 1:1 (v/v) mixed with virus (1:500 dilution) after an incubation time of 10 min. The HIV‐1 infection assay was conducted in three technical replicates and repeated in three independent experiments unless stated otherwise. The assay was conducted as described before.^[ [20] ^]

ThT fluorescence = assay type: physicochemical; set-up: key: + = ThT active; − = no ThT fluorescence observed; settings: 1 mg mL-1 in PBS; ThT-active if fluorescence at least twice the control (PBS with 10% DMSO)
Protocol: ThT‐fluorescence: 20 µL 50 µM of ThT solution in PBS was pipetted in a black 384 well‐plate and 4 µL of the nanofibril solution 1 mg mL^−1 were added. For reference PBS with 10% DMSO (4 µL) instead of fibril solution was added. Subsequently, fluorescence emission was recorded λem = 488 nm upon excitation at λex = 440 nm with 10 nm bandwidth and multiple reads per well (3 × 3) using a Spark 20 M microplate reader (Tecan Group, Ltd). Data processing was performed with Origin software. A peptide fibril was considered as ThT‐active if the fluorescence intensity was at least twice as strong compared to the control (PBS containing 10% DMSO).

[2] = ATR-FT-IR β-sheet content; assay type: physicochemical; settings: ATR-IR of lyophilized fibril solutions (1 mg mL-1, PBS); peak integration at 1630 cm-1 in 2nd derivative of amide I region
Protocol: ATR‐FT‐IR: ATR‐IR spectra acquisition and the calculation of β−sheet content were conducted according to a previous report.^[ [20] ^] Briefly, FT‐IR spectra of solid samples were recorded after lyophilization of fibril solutions using a Bruker Tensor II spectrometer equipped with a diamond crystal as ATR element with a spectral resolution of 2 cm–1, each spectrum was an average of 64 scans. The data was processed with Origin software. β−sheet amount was determined by calculating the integral of the peak at 1630 cm^−1 (β‐sheet) relative to the integral between 1650–1700 cm^−1 (native structure) from the 2nd derivative of the FT‐IR spectra.

[3] = Zeta-potential measurement; assay type: physicochemical; settings: fibrils 1 mg mL-1 in PBS, 60 µL diluted in 600 µL 1 mM KCl; triplicates
Protocol: Zeta‐potential: 60 µL of the peptides (1 mg mL^−1) were diluted in 600 µL, 1 mM KCl solution and placed in a disposable folded capillary cuvette. All zeta‐potential measurements (Zetasizer, Malvern Instruments) were conducted in triplicates for each sample.

[4] = Microscopic aggregation (fluorescence / confocal microscopy, derived count rate); assay type: physicochemical; settings: fibrils preformed at 1 mg mL-1 in PBS; ThT or Proteostat stain, widefield or confocal microscopy; derived count rate > 1000 kcps as criterion
Protocol: (§1) Transmission electron microscopy (TEM) measurements, Thioflavin (ThT), zeta‐potential measurements for fibril characterization, ATR‐IR spectra acquisition and the calculation of β−sheet were prepared and conducted analogous to a previous report.^[ [20], [86] ^] […] Fibrils were defined as distinct, if no visible structures could be identified in fluorescence and brightfield microscopy. […] The derived count rate of the zeta‐potential measurement was used as information on the light scattering intensity and turbidity of the sample as a further indicator for microscopic aggregation.^[ [90] ^]
Fluorescence microscopy: 1 µL Fibrils (1 mg mL^−1) were stained with 9 µL, 50 µM ThT. 10 µL of the stained fibrils (0.1 mg mL^−1) were placed on a microscopy glass. Fluorescence microscopy measurements were performed on a Leica DMi8 microscope with 10x air objective and equipped with a Leica MC170 HD camera with a filter setting λem = 527/30 nm upon excitation at λex = 480/40 nm) and processed with the Leica LASX software.
7 Effects of PA modifications on properties and activity
To investigate the effects of modification in the PA sequence, we created various peptide amphiphiles derived from PA1 by varying the (I) hydrophobic moiety, (II) the linkage chemistry and (III) the peptide sequence (Figure S12, SI chapter 7.1 – 7.3). The color code for sequence representation is yellow for the hydrophobic moiety, blue for cationic amino acids, red for non-polar amino acids, purple for polar uncharged amino acids, and green for anionic amino acids. To be concise, only the summarized information will be discussed, all original data for the peptides are summarized in the (Figure S26 - […]
Figure S12 Summarized overview of peptide amphiphile library in which systematic variations the original sequence […]
chemistry and (III) the peptide sequence on infectivity enhancement and degradability (see SI chapter 7.1 – 7.3).
In the following section a compound is considered infectivity enhancing if n-fold infectivity at 1.3 µM is larger than 2. A compound is considered to form µm-sized aggregates if visible particles were observed in widefield microscopy (brightfield or ThT-staining filter, objective 10x) or confocal […]
than 1000 kcps in Zeta-Potential measurements.
For the degradability only the PAs which could be stained with Proteostat (Figure S26) and were visible in microscopy (Figure S15, Figure S18, Figure S21, and Figure S22) were studied in detail. To determine […]
whether a PA is degraded or not, Proteostat stained PAs which are added to Hela cells (2 µg peptide added to 20.000 cells) and studied via confocal laser scanning microscopy. […]
In the following, we will distinguish between three aggregation types for fibrillar structures: Fibrils which were not aggregating (below resolution limit of the microscope, approx. 650 nm), moderately aggregating (< 50 µm2) and aggregating to large particles (> 50 µm 2).
7.1 Effects of hydrophobic moiety exchange on properties and activity
To investigate the effects of varying hydrophobic moieties on assembly, aggregation and activity , we

[5] = TEM morphology of peptide assemblies; assay type: physicochemical; settings: diluted from DMSO stock (10 mg mL-1) to 1 mg mL-1 in PBS, incubated 1 d at rt
Protocol: as §1
TEM: 5 µL of fibrils (1 mg mL^−1) were placed on 300 mesh, Formvar layered copper grids. After 10 min incubation time, the grids were staining with 4% uranyl acetate solution for 2.5 min. After
three washing steps with dd H2O excess solvent was removed by filter paper. Measurements
were performed on a Jeol 1400 electron microscope with 120 kV acceleration voltage.

SMILES	association with cellular membranes (HeLa cells)	infectivity enhancement of HIV-1 (in words) [1]	ThT fluorescence (ThT fluorescence)	β-sheet content [2] [%]	Zeta-Potential [3] [mV]	formation of µm-sized aggregates (in words) [4]	morphology of peptide assemblies / fibril formation (TEM) [5]
CCCCCCCCCCCCCCCC(=O)N[C@H](C(=O)N[C@H](C(=O)N[C@H](C(=O)N[C@@H](C)C(=O)N[C@@H](C)C(=O)N[C@@H](C)C(=O)N[C@@H](CCC(=O)O)C(=O)N[C@@H](CCC(=O)O)C(=O)N[C@@H](CCC(=O)O)C(N)=O)C(C)C)C(C)C)C(C)C [PA3] (Palmitoyl-VVVAAAEEE-NH2)	does not associate with cells	Inactive	+	61	−29.8 ± 2.7	did not bundle or adopt µm‐sized aggregates in PBS	distinct fibrils
CCCCCCCCCCCCCCCC(=O)N[C@@H](C)C(=O)NCC(=O)NCC(=O)N[C@@H](CCCNC(=N)N)C(=O)N[C@H](C(=O)N[C@@H](CCCCN)C(N)=O)C(C)C [C16-AGGRVK-NH2] (Palmitoyl-AGGRVK-NH2)	did not associate with cells					not forming µm-sized aggregates and forming too few/less aggregates, respectively; also recorded: no aggregation	
